US12582104B2, “Mutant myocilin disease model and uses thereof” (Regeneron Pharmaceuticals, Inc., priority 2021, dated 2026)

Tested on: SAM-MYOC mice
Test: Intraocular pressure (IOP) in SAM-MYOC mice
Type: in vivo, mouse
Conditions: SAM-MYOC mice approximately 10 weeks after AAV2.Y3F-SAM-g4; one drop per eye; IOP at 2, 4, 6, and 24 hours
Description: To validate the SAM mice comprising a humanized MYOC locus comprising a Y437H mutation (SAM-MYOC mice), SAM-MYOC mice homozygous or heterozygous for the humanized MYOC locus were treated with AAV2.Y3F-SAM-g4, AAV2.Y3F-SAM-g5, an AAV2.Y3F-SAM-LacZ control, or nothing (naïve). […] This validated the SAM-MYOC mice as a suitable MYOC disease model with increased IOP.
IOP-lowering drugs used to treat glaucoma patients were then tested as a proof-of-concept to determine if they could lower the IOP observed in the SAM-MYOC mice following treatment with SAM-g4. We tested two IOP-lowering drugs: (1) timolol (a beta blocker that suppresses aqueous humor formation); and (2) RHOPRESSA® (a ROCK inhibitor that increases outflow of aqueous humor). […] At 0 hours, the IOP was measured, and each eye received one drop of either timolol or RHOPRESSA®, and IOP was measured at 2, 4, 6, and 24 hours after treatment.
An siRNA targeting human MYOC was then tested to determine if it could lower the high IOP observed in the SAM-MYOC mice following treatment with SAM-g4. SAM-g4 was administered via intracameral (IC) injection at day 0, and baseline IOP was measured. IOP was then measured over the following five weeks. At week five, MYOC siRNA #1 (1 μL, 15 μg dose) was administered via intravitreal (IVT) injection, and IOP was measured at various timepoints over the subsequent weeks. […]

CC(C)(C)NC[C@H](O)COc1nsnc1N1CCOCC1 [timolol]
IOP after IOP-lowering drug: effective at lowering IOP
